These results are taken from patent US9120812B2, “Pyrimidooxazocine derivatives as mTOR-inhibitors” (SANOFI, priority 2012, dated 2015).

One assay addresses PI3Kα (p110α/p85α) (Homo sapiens (Human), UniProt P42336). The assay is described as follows: PI3Kα enzymatic test by measuring the consumption of ATP. In kind it is biochemical. The essentials: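 ATP consumption read out by KinaseGlo luminescence after a 90 min reaction of 1.7 μg/ml PI3Kα (p110α/p85α) with 2 μM ATP and 50 μM PIP2, buffered at pH 7.5 (Tris, 10 mM MgCl2, 1 mM EGTA, 0.03% Chaps, 1 mM DTT). Threefold dilution series over ≥10 000-fold range yield IC50.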

Assay [1] deals with mTOR (human recombinant aa mTOR 1360-2549) (Homo sapiens (Human), UniProt P42345). The assay can be described thus: mTOR enzymatic test by TR-FRET (phosphorylation of GFP-4EBP1). The class given is biochemical. The essentials: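 After a 30 min room-temperature kinase reaction, EDTA (10 mM final) and Tb-labelled phospho-Thr46 antibody (2 nM final) were added and incubated 60 min. Energy transfer from Tb to phosphorylated GFP-4EBP1 was read at 340 nm excitation, emissions 490/520 nm. Values derive from the 520/490 fluorescence ratio.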
Sequence of mTOR (human recombinant aa mTOR 1360-2549) (P42345 1360-2549): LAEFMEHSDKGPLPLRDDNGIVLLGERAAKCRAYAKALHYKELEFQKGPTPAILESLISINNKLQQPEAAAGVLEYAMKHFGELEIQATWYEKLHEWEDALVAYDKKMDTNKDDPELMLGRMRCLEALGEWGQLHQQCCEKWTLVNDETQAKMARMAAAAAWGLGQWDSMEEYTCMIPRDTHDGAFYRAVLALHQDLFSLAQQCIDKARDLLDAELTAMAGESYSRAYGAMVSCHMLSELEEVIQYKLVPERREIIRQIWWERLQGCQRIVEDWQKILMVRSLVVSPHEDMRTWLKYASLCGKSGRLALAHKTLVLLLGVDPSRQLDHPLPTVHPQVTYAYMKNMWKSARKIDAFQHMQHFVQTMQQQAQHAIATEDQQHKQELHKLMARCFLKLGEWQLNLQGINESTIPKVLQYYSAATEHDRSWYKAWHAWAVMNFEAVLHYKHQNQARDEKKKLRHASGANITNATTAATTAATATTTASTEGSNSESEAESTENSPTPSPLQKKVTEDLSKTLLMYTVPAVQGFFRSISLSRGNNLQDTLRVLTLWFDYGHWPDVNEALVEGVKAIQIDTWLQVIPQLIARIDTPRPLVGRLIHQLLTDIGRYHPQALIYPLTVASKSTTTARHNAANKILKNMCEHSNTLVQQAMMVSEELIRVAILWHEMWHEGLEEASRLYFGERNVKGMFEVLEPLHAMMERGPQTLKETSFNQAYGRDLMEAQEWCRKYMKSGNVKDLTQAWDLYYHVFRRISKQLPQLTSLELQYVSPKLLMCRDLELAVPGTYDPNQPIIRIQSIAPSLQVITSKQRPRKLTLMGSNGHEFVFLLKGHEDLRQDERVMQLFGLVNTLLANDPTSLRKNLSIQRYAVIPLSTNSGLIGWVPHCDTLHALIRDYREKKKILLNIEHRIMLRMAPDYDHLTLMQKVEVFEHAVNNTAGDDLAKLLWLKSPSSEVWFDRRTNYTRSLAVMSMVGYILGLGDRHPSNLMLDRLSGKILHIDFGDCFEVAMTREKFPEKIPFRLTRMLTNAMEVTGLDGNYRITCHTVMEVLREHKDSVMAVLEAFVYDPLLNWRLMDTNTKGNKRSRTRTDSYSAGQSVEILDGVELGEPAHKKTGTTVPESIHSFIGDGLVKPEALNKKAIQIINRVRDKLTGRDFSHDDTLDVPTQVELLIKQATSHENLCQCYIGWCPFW
For orientation: In TR-FRET formats the signal depends on donor and acceptor labels being close together.

In the next assay the test system is U87MG tumour cells. The assay is described as follows: Test of in vitro proliferation of U87MG tumour cells. In kind it is cell-based. Conditions: U87MG cells, 72 hours, read-out: U87 Cell Proliferation IC50. The method, then:
Model 4: Test of in vitro Proliferation of U87MG Tumour Cells.
The cell growth is determined with the reagent CellTiter 96 AQueous One Solution Cell Proliferation Assay from Promega (Cat. No. G3581).

Setting [2] is: Homo sapiens, U-87 MG, read-out: U87 Akt-pS473 % Inhibition or IC50, nM (IC50), U87MG cells.

Read-outs that look alike come from different tables or passages of the source.

Sequence of PI3Kα (p110α/p85α) (P42336 whole entry): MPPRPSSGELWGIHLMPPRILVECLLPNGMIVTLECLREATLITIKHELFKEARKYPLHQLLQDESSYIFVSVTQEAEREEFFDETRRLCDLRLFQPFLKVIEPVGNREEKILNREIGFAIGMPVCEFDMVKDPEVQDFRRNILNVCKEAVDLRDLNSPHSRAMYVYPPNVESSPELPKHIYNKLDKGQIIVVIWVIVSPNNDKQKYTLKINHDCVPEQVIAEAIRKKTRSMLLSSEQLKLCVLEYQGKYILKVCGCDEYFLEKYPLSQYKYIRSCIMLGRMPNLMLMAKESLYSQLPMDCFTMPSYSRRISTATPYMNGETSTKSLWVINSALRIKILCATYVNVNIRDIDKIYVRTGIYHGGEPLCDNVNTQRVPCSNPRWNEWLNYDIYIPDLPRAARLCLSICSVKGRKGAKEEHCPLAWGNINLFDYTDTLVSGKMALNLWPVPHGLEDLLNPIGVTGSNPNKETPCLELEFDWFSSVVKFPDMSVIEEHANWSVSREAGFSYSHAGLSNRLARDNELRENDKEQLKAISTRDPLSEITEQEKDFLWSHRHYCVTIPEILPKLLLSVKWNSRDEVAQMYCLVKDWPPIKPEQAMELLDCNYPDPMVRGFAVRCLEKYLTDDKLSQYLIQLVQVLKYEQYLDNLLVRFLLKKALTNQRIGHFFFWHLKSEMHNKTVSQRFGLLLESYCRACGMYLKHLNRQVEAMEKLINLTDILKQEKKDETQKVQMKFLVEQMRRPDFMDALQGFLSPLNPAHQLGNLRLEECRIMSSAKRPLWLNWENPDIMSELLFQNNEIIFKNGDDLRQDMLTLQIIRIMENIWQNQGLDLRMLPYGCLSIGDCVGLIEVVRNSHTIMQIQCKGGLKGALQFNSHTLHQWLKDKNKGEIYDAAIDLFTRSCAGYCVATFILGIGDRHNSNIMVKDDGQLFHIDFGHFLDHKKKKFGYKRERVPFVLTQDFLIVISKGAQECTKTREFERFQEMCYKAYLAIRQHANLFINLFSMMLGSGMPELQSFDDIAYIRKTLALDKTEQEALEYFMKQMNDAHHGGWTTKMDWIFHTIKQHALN
Sequence of PI3Kα (p110α/p85α) (P27986 whole entry partner): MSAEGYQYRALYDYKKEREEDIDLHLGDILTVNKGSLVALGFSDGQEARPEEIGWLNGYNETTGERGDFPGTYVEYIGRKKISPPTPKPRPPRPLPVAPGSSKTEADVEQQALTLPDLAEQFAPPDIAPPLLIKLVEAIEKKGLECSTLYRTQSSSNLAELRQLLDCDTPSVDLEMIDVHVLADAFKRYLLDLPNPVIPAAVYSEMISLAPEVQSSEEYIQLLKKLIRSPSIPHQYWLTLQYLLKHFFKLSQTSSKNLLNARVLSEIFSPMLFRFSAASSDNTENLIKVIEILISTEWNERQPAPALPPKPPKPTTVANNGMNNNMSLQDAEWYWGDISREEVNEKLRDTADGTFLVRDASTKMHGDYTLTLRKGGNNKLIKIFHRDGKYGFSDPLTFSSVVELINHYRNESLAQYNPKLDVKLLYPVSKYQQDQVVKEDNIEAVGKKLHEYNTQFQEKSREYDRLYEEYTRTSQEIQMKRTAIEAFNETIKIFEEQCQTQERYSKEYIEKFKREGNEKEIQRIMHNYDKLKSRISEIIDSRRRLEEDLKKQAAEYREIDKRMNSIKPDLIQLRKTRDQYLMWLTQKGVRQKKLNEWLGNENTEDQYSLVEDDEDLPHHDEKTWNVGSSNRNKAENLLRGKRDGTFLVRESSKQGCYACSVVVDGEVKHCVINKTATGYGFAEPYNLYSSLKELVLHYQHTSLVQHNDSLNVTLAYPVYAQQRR

For `CCN1CC(C)(C)Oc2nc(N3CCOC[C@@H]3C)nc(-c3ccc(NC(=O)Nc4ccn(C)n4)c(F)c3)c2C1=O` [Example 166, 1-{4-[6-Ethyl-8,8-dimethyl-2-((S)-3-methylmorpholin-4-yl)-5-oxo-5,6,7,8-tetrahydro-9-oxa-1,3,6-triazabenzocyclohepten-4-yl]-2-fluorophenyl}-3-(1-methyl-1H-pyrazol-3-yl)urea], at PI3Kα (p110α/p85α), the “PI3Ka IC50” value is 2300 nM. Besides, the IC50 was 86 nM in assay [1]; 278 nM in the assay on Akt-pS473 in U87MG cells (setting [2]); 1270 nM in the assay with U87MG tumour cells (Homo sapiens, U-87 MG, 72 h).

Turning to `CCN1CC(C)(C)Oc2nc(N3CCOC[C@@H]3C)nc(-c3ccc(NC(=O)Nc4cnc(C)cn4)c(F)c3)c2C1=O` [Example 167, 1-{4-[6-Ethyl-8,8-dimethyl-2-((S)-3-methylmorpholin-4-yl)-5-oxo-5,6,7,8-tetrahydro-9-oxa-1,3,6-triazabenzocyclohepten-4-yl]-2-fluorophenyl}-3-(5-methylpyrazin-2-yl)urea], the “PI3Ka IC50” value at PI3Kα (p110α/p85α) came to 3520 nM. Besides, the IC50 in assay [1] amounted to 62 nM; with Akt-pS473 in U87MG cells (setting [2]) it was 158 nM; in the assay on U87MG tumour cells (Homo sapiens, U-87 MG, 72 h), 500 nM.

Consider `CCN1CC(C)(C)Oc2nc(N3CCOC[C@@H]3C)nc(-c3ccc(NC(=O)Nc4ccc(C)cn4)cc3)c2C1=O` [Example 168, 1-{4-[6-Ethyl-8,8-dimethyl-2-((S)-3-methylmorpholin-4-yl)-5-oxo-5,6,7,8-tetrahydro-9-oxa-1,3,6-triazabenzocyclohepten-4-yl]phenyl}-3-(5-methylpyridin-2-yl)urea], for which, on PI3Kα (p110α/p85α), the “PI3Ka IC50” value amounted to 1385 nM. For the same compound, the IC50 was found to be 18 nM in assay [1]; 48 nM with Akt-pS473 in U87MG cells (setting [2]); 231 nM in the assay with U87MG tumour cells (Homo sapiens, U-87 MG, 72 h).

On to `CCN1CC(C)(C)Oc2nc(N3CCOC[C@@H]3C)nc(-c3ccc(NC(=O)Nc4ccc(C)cn4)cc3)c2C1=O` [Example 169, 1-{4-[6-Ethyl-8,8-dimethyl-2-((S)-3-methylmorpholin-4-yl)-5-oxo-5,6,7,8-tetrahydro-9-oxa-1,3,6-triazabenzocyclohepten-4-yl]phenyl}-3-(5-methylpyridin-2-yl)urea], for which the “PI3Ka IC50” value at PI3Kα (p110α/p85α) was found to be 1450 nM. Besides, the IC50 was 31 nM in assay [1]; 26 nM with Akt-pS473 in U87MG cells (read-out: U87 Akt-pS473 % Inhibition or IC50, nM (IC50), U87MG cells); 299 nM in the assay on U87MG tumour cells.

In the case of `CCN1CC(C)(C)Oc2nc(N3CCOC[C@@H]3C)nc(-c3ccc(NC(=O)Nc4nnc(C)o4)c(F)c3)c2C1=O` [Example 170, 1-{4-[6-Ethyl-8,8-dimethyl-2-((S)-3-methylmorpholin-4-yl)-5-oxo-5,6,7,8-tetrahydro-9-oxa-1,3,6-triazabenzocyclohepten-4-yl]-2-fluorophenyl}-3-(5-methyl-[1,3,4]oxadiazol-2-yl)urea], the “PI3Ka IC50” value at PI3Kα (p110α/p85α) was 824 nM. In addition, the IC50 in assay [1] was 106 nM; in the assay with Akt-pS473 in U87MG cells (setting [2]), 94 nM; in the assay with U87MG tumour cells (Homo sapiens, U-87 MG, 72 h), 557 nM.

For `CCN1CC(C)(C)Oc2nc(N3CCOC[C@@H]3C)nc(-c3ccc(NC(=O)Nc4ccc(N5CCN(C)CC5)nc4)c(F)c3)c2C1=O` [Example 171, 1-{4-[6-Ethyl-8,8-dimethyl-2-((S)-3-methylmorpholin-4-yl)-5-oxo-5,6,7,8-tetrahydro-9-oxa-1,3,6-triazabenzocyclohepten-4-yl]-2-fluorophenyl}-3-[6-(4-methylpiperazin-1-yl)pyridin-3-yl]urea], at PI3Kα (p110α/p85α), the “PI3Ka IC50” value is listed as 308 nM. Also, the IC50 in assay [1] came to 37 nM; with Akt-pS473 in U87MG cells (setting [2]), 41 nM; in the assay on U87MG tumour cells (Homo sapiens, U-87 MG, 72 h), 91 nM.

For `COCCN1CC(C)(C)Oc2nc(N3CC4CCC(C3)O4)nc(-c3ccc(NC(=O)Nc4ccon4)cc3)c2C1=O` [Example 172, 1-Isoxazol-3-yl-3-{4-[6-(2-methoxyethyl)-8,8-dimethyl-2-(8-oxa-3-azabicyclo[3.2.1]oct-3-yl)-5-oxo-5,6,7,8-tetrahydro-9-oxa-1,3,6-triazabenzocyclohepten-4-yl]phenyl}urea], on PI3Kα (p110α/p85α), the “PI3Ka IC50” value is recorded as <10000 nM. The IC50 in assay [1] came out at 20 nM; in the assay on Akt-pS473 in U87MG cells (setting [2]), 98 nM; in the assay with U87MG tumour cells (Homo sapiens, U-87 MG, 72 h) it was 198 nM.

Take `CCN1CC(C)(C)Oc2nc(N3CCOC[C@@H]3C)nc(-c3ccc(NC(=O)Nc4ccc(OC)cn4)cc3)c2C1=O` [Example 173, 1-{4-[6-Ethyl-8,8-dimethyl-2-((S)-3-methylmorpholin-4-yl)-5-oxo-5,6,7,8-tetrahydro-9-oxa-1,3,6-triazabenzocyclohepten-4-yl]phenyl}-3-(5-methoxypyridin-2-yl)urea]: the “PI3Ka IC50” value on PI3Kα (p110α/p85α) is on record as 1602 nM. Moreover, the IC50 turned out to be 12 nM in assay [1]; 42 nM in the assay on Akt-pS473 in U87MG cells (setting [2]); 242 nM in the assay with U87MG tumour cells (Homo sapiens, U-87 MG, 72 h).

With `CCN1CC(C)(C)Oc2nc(N3CCOC[C@@H]3C)nc(-c3ccc(NC(=O)Nc4ccc(N5CCN(C)CC5)nc4)cc3)c2C1=O` [Example 174, 1-{4-[6-Ethyl-8,8-dimethyl-2-((S)-3-methylmorpholin-4-yl)-5-oxo-5,6,7,8-tetrahydro-9-oxa-1,3,6-triazabenzocyclohepten-4-yl]phenyl}-3-[6-(4-methylpiperazin-1-yl)pyridin-3-yl]urea], at PI3Kα (p110α/p85α), the “PI3Ka IC50” value is given as 326 nM. The IC50 in assay [1] was determined as 22 nM; in the assay with Akt-pS473 in U87MG cells (setting [2]) it was 36 nM; in the assay on U87MG tumour cells (Homo sapiens, U-87 MG, 72 h), 125 nM.

Regarding `CCN1CC(C)(C)Oc2nc(N3CC4CCC(C3)O4)nc(-c3ccc(NC(=O)Nc4ccc(C(=O)N(C)CCN(C)C)cc4)cc3)c2C1=O` [Example 176, N-(2-Dimethylaminoethyl)-4-(3-{4-[6-ethyl-8,8-dimethyl-2-(8-oxa-3-azabicyclo[3.2.1]oct-3-yl)-5-oxo-5,6,7,8-tetrahydro-9-oxa-1,3,6-triazabenzocyclohepten-4-yl]phenyl}ureido)-N-methylbenzamide], on PI3Kα (p110α/p85α), the “PI3Ka IC50” value is 100 nM. Further, the IC50 in assay [1] turned out to be 69 nM; in the assay on Akt-pS473 in U87MG cells (setting [2]), 314 nM; in the assay with U87MG tumour cells (Homo sapiens, U-87 MG, 72 h), 83 nM.

For `CCN1CC(C)(C)Oc2nc(N3CC4CCC(C3)O4)nc(-c3ccc(NC(=O)Nc4ccc(C(=O)N5CCC(N(C)C)CC5)cc4)cc3)c2C1=O` [Example 177, 1-[4-(4-Dimethylaminopiperidine-1-carbonyl)phenyl]-3-{4-[6-ethyl-8,8-dimethyl-2-(8-oxa-3-azabicyclo[3.2.1]oct-3-yl)-5-oxo-5,6,7,8-tetrahydro-9-oxa-1,3,6-triazabenzocyclohepten-4-yl]phenyl}urea], the “PI3Ka IC50” value at PI3Kα (p110α/p85α) worked out at 87 nM. Further, the IC50 in assay [1] was determined as 84 nM; in the assay with Akt-pS473 in U87MG cells (setting [2]) it was 435 nM; with U87MG tumour cells (Homo sapiens, U-87 MG, 72 h), 57 nM.

`COCCN1CC(C)(C)Oc2nc(N3CC4CCC(C3)O4)nc(-c3ccc(NC(=O)Nc4ccc(OC)nc4)c(F)c3)c2C1=O` [Example 178, 1-{2-Fluoro-4-[6-(2-methoxyethyl)-8,8-dimethyl-2-(8-oxa-3-azabicyclo[3.2.1]oct-3-yl)-5-oxo-5,6,7,8-tetrahydro-9-oxa-1,3,6-triazabenzocyclohepten-4-yl]phenyl}-3-(6-methoxypyridin-3-yl)urea]: the “PI3Ka IC50” value at PI3Kα (p110α/p85α) is >10000 nM. The IC50 in assay [1] was 45 nM; in the assay with Akt-pS473 in U87MG cells (setting [2]) it was 104 nM; in the assay with U87MG tumour cells (Homo sapiens, U-87 MG, 72 h), 252 nM.

In the case of `COCCN1CC(C)(C)Oc2nc(N3CC4CCC(C3)O4)nc(-c3ccc(NC(=O)Nc4ccon4)c(F)c3)c2C1=O` [Example 179, 1-{2-Fluoro-4-[6-(2-methoxyethyl)-8,8-dimethyl-2-(8-oxa-3-azabicyclo[3.2.1]oct-3-yl)-5-oxo-5,6,7,8-tetrahydro-9-oxa-1,3,6-triazabenzocyclohepten-4-yl]phenyl}-3-isoxazol-3-ylurea], the “PI3Ka IC50” value on PI3Kα (p110α/p85α) is recorded as >10000 nM. Also, the IC50 in assay [1] came out at 58 nM; in the assay with Akt-pS473 in U87MG cells (setting [2]) it was 331 nM; with U87MG tumour cells (Homo sapiens, U-87 MG, 72 h), 1330 nM.

Regarding `COCCN1CC(C)(C)Oc2nc(N3CCOC[C@@H]3C)nc(-c3ccc(NC(=O)Nc4ccon4)cc3)c2C1=O` [Example 180, 1-Isoxazol-3-yl-3-{4-[6-(2-methoxyethyl)-8,8-dimethyl-2-((S)-3-methylmorpholin-4-yl)-5-oxo-5,6,7,8-tetrahydro-9-oxa-1,3,6-triazabenzocyclohepten-4-yl]phenyl}urea], the “PI3Ka IC50” value at PI3Kα (p110α/p85α) turned out to be 604 nM. Moreover, the IC50 in assay [1] is 11 nM; with Akt-pS473 in U87MG cells (setting [2]), 65 nM; in the assay on U87MG tumour cells (Homo sapiens, U-87 MG, 72 h), 146 nM.

For the compound `CCN1CC(C)(C)Oc2nc(N3CCOC[C@@H]3C)nc(-c3ccc(NC(=O)Nc4cc(OC)ccn4)c(F)c3)c2C1=O` [Example 181, 1-{4-[6-Ethyl-8,8-dimethyl-2-((S)-3-methylmorpholin-4-yl)-5-oxo-5,6,7,8-tetrahydro-9-oxa-1,3,6-triazabenzocyclohepten-4-yl]-2-fluorophenyl}-3-(4-methoxypyridin-2-yl)urea], on PI3Kα (p110α/p85α), the “PI3Ka IC50” value stood at 7650 nM. Moreover, the IC50 in assay [1] was 74 nM; with Akt-pS473 in U87MG cells (setting [2]), 285 nM; in the assay with U87MG tumour cells (Homo sapiens, U-87 MG, 72 h), 1320 nM.

As to `CCN1CC(C)(C)Oc2nc(N3CCOC[C@@H]3C)nc(-c3ccc(NC(=O)Nc4cn(C)cn4)c(F)c3)c2C1=O` [Example 182, 1-{4-[6-Ethyl-8,8-dimethyl-2-((S)-3-methylmorpholin-4-yl)-5-oxo-5,6,7,8-tetrahydro-9-oxa-1,3,6-triazabenzocyclohepten-4-yl]-2-fluorophenyl}-3-(1-methyl-1H-imidazol-4-yl)urea], the “PI3Ka IC50” value at PI3Kα (p110α/p85α) is recorded as 159 nM. Further, the IC50 in assay [1] is 26 nM; with Akt-pS473 in U87MG cells (setting [2]), 407 nM; in the assay on U87MG tumour cells (Homo sapiens, U-87 MG, 72 h), 2930 nM.
